These results are taken from article PMC12800093 (Nature Communications, 2025).

Where a SMILES comes first, the peptide text is derived from it. Where no end group is shown, it is not given here. [ ]: non-standard residue; d: D form.

Data set [1] deals with hypoxia-induced NRP Mtb H37Ra. The data set is classed as cell-based, M. tuberculosis.
The subject of data set [2] is nutrient-starved NRP Mtb H37Rv. The experiment in a line: Kill curves with nutrient-starved non-replicating Mtb. It counts as cell-based, M. tuberculosis.
Data set [3] has as its system proliferating Mtb (H37Rv) cultures.
Data set [4] is described as follows: Human serum proteolytic stability. The data set is classed as in vitro ADME. Particulars: observed during serum proteolysis experiments, 25% v/v human serum.
For data set [5], the system named is Mtb-secreted proteases (mc^2 6230 supernatant). The conditions noted are these: proteolytic Mtb (mc^2 6230) supernatant, two weeks (0, 1, 7, 14 d), HPLC; n = 3 technical replicates.

In the case of `NNC(=O)c1ccncc1` [INH, isoniazid, reference compound], the “activity under hypoxic conditions” value in data set [1] is “inactive”. Besides, the “activity under nutrient starvation conditions” value in data set [2] is “inactive”. For the same molecule, in data set [3], the “incubation time at which regrowth of treated Mtb cultures was permitted” value was found to be 3 days and the “reduction in the first week of exposure” value is ~ 2 log.

As for `CC(C)[C@@H](NC(=O)[C@H](N)Cc1c[nH]c2ccccc12)C(=O)N[C@@H](C(=O)N[C@H](Cc1c[nH]c2ccccc12)C(=O)N[C@H](Cc1c[nH]cn1)C(=O)N[C@H](CCCNC(=N)N)C(=O)N[C@H](CCCNC(=N)N)C(=O)N[C@H](Cc1c[nH]c2ccccc12)C(=O)N[C@H](Cc1c[nH]c2ccccc12)C(=O)N[C@H](Cc1c[nH]cn1)C(=O)N[C@H](Cc1c[nH]c2ccccc12)C(=O)N[C@H](CCCNC(=N)N)C(=O)N[C@H](CCCCN)C(N)=O)C(C)C` [MAD1-RI] (H-[dW][dV][dV][dW][dH][dR][dR][dW][dW][dH][dW][dR][dK]-NH2), in data set [4], the “binding to human serum proteins” value was “significant binding”. In data set [5], the “Stability in the presence of Mtb-secreted proteases” value was “generally remained stable up to two weeks”.

As to KRWHWWRRHWVVW-NH2 [MAD1], the “Stability in the presence of Mtb-secreted proteases” value in data set [5] is “completely proteolyzed after 14 days”.
